This is an account of results in ChEMBL document CHEMBL1136546, “SLV310, a novel, potential antipsychotic, combining potent dopamine D2 receptor antagonism with serotonin reuptake inhibition” (Bioorg Med Chem Lett, 2003).

A value given as a limit tells only on which side of the number the result lay.

What is called Ki is the equilibrium dissociation constant of an inhibitor or competing ligand from its target. In general, ED50 refers to the dose that gives a 50% effect, or the effect in half of the subjects.

For the first experiment, the target named is D(2) dopamine receptor (Homo sapiens, UniProt P14416). In words: In vitro binding affinity at human cloned dopamine receptor D2 (long) stably expressed in CHO cells by [3H]spiperone displacement. The experiment is classed as cell-based.
Chain of D(2) dopamine receptor (P14416 whole entry): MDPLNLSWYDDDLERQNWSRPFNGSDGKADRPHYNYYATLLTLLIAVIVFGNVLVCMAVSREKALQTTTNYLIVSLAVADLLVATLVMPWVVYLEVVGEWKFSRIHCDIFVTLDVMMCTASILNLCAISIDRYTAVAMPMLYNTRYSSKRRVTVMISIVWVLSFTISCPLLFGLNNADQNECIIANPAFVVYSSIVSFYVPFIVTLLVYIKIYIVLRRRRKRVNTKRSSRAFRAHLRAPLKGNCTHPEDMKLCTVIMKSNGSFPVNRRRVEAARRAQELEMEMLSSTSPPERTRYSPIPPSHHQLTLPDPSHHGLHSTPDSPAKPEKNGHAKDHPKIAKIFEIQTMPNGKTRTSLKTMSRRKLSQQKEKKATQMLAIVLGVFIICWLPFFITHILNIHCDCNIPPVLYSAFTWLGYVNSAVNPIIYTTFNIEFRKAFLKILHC
Consider `Cc1cccc2c1C(=O)N(CCCCCN1CC=C(c3c[nH]c4ccccc34)CC1)C2=O`, for which the inhibitory constant (Ki) is 100 nM.

In turn, `O=C1c2ccccc2C(=O)N1CCCCCN1CC=C(c2c[nH]c3ccc(Cl)cc23)CC1` displayed a Ki of 20 nM.

In turn, `Cc1ccc2c(c1)C(=O)N(CCCCCN1CC=C(c3c[nH]c4ccccc34)CC1)C2=O` came in with a Ki of 40 nM.

Turning to `O=C1c2ccccc2C(=O)N1CCCCN1CC=C(c2c[nH]c3ccc(F)cc23)CC1`, the affinity corresponds to a Ki of 16 nM.

For `O=C1c2ccccc2C(=O)N1CCCCCN1CC=C(c2c[nH]c3ccc(F)cc23)CC1`, the Ki is 5 nM.

As to `O=C1c2ccccc2C(=O)N1CCCN1CC=C(c2c[nH]c3ccc(F)cc23)CC1`, the Ki was determined as 20 nM.

The compound `Cc1cccc2c1C(=O)N(CCCCCN1CC=C(c3c[nH]c4ccc(F)cc34)CC1)C2=O` returned a Ki of 25 nM. This Ki and that of the compound before are within 1.5-fold of each other.

For `O=C1c2cccc(F)c2C(=O)N1CCCCCN1CC=C(c2c[nH]c3ccc(F)cc23)CC1`, the affinity corresponds to a Ki of 12 nM.

The compound `O=C1c2ccc(F)cc2C(=O)N1CCCCCN1CC=C(c2c[nH]c3ccc(F)cc23)CC1` displayed a Ki of 10 nM.

`O=C1c2ccccc2C(=O)N1CCCCCCCN1CC=C(c2c[nH]c3ccc(F)cc23)CC1` yielded an inhibition constant Ki of 25 nM.

`O=C1c2cccc(F)c2C(=O)N1CCCCCN1CC=C(c2c[nH]c3ccccc23)CC1` displayed a Ki of 25 nM.

Compound `Cc1ccc2c(c1)C(=O)N(CCCCCN1CC=C(c3c[nH]c4ccc(F)cc34)CC1)C2=O` displayed a Ki of 20 nM. The Ki values of the last two compounds are within 1.5-fold of each other.

In turn, `O=C1c2ccccc2C(=O)N1CCCCCN1CC=C(c2c[nH]c3ccccc23)CC1` came in with a Ki of 25 nM.

`O=C1c2ccc(F)cc2C(=O)N1CCCCCN1CC=C(c2c[nH]c3ccccc23)CC1` registered a Ki of 40 nM.

In turn, `Cc1cccc2c(C3=CCN(CCCCCN4C(=O)c5ccccc5C4=O)CC3)c[nH]c12` came in with a Ki of 40 nM. This counts as double-digit nanomolar.

Take `O=C(CCCN1CCC(CCc2c[nH]c3ccccc23)CC1)c1ccc(F)cc1`: the Ki was 40 nM.

As to `c1ccc2c(CCC3CCNCC3)c[nH]c2c1` [INDALPINE], the inhibition constant (Ki) was above 1000 nM.

A further experiment has as its system Mus musculus. The experiment can be described thus: Dopaminergic antagonistic activity was determined in vivo by antagonising apomorphine induced climbing behavior (APO) in mice by oral administration. The experiment is classed as functional.
`O=C1c2ccccc2C(=O)N1CCCCCN1CC=C(c2c[nH]c3ccc(F)cc23)CC1` registered an ED50 of 5.6 mg/kg.

On to `O=C1c2cccc(F)c2C(=O)N1CCCCCN1CC=C(c2c[nH]c3ccc(F)cc23)CC1`, for which the ED50 was determined as 6.1 mg/kg.

With `O=C1c2ccc(F)cc2C(=O)N1CCCCCN1CC=C(c2c[nH]c3ccc(F)cc23)CC1`, the ED50 worked out at 5 mg/kg.

Turning to `O=C1c2cccc(F)c2C(=O)N1CCCCCN1CC=C(c2c[nH]c3ccccc23)CC1`, the ED50 was above 20 mg/kg.

In the case of `O=C1c2ccccc2C(=O)N1CCCCCN1CC=C(c2c[nH]c3ccccc23)CC1`, the ED50 came to 14 mg/kg.

With `O=C(CCCN1CCC(CCc2c[nH]c3ccccc23)CC1)c1ccc(F)cc1`, the ED50 was found to be 11 mg/kg.

`O=C(CCCN1CCC(O)(c2ccc(Cl)cc2)CC1)c1ccc(F)cc1` [HALOPERIDOL] came in with an ED50 of 0.1 mg/kg.

The subject of another experiment is Rattus norvegicus. The experiment can be described thus: Effective dose to exhibit antipsychotic potency after oral administration in rats was determined. It is filed as functional.
In turn, `O=C1c2ccccc2C(=O)N1CCCCCN1CC=C(c2c[nH]c3ccc(F)cc23)CC1` displayed an ED50 of 17.5 mg/kg.

The target of another experiment is Sodium-dependent serotonin transporter (Rattus norvegicus, UniProt P31652). The experiment can be described thus: In vitro binding affinity for serotonin reuptake sites in rat frontal cortex membranes by [3H]paroxetine displacement. The experiment is classed as cell membranes, Membrane.
Chain of Sodium-dependent serotonin transporter (P31652 whole entry): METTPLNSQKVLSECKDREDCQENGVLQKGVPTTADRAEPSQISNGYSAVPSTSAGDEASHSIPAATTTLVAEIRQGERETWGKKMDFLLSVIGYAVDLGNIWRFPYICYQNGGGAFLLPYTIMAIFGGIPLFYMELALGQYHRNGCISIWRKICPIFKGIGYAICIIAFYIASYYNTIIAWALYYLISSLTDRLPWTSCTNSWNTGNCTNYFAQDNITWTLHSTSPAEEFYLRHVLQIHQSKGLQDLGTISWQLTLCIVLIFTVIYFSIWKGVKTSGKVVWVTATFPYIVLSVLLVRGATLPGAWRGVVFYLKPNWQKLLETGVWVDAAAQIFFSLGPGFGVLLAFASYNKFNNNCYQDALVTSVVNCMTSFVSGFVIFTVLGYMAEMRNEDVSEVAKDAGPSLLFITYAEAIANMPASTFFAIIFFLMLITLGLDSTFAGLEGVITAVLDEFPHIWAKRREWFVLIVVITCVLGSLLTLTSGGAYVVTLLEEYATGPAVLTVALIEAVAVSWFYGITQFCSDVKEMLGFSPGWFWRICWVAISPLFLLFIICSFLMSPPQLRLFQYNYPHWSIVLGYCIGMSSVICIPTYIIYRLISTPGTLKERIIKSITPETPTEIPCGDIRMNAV
Regarding `Cc1cccc2c1C(=O)N(CCCCCN1CC=C(c3c[nH]c4ccccc34)CC1)C2=O`, the affinity corresponds to a Ki of 1 nM.

Take `O=C1c2ccccc2C(=O)N1CCCCCN1CC=C(c2c[nH]c3ccc(Cl)cc23)CC1`: the inhibition constant Ki is 16 nM.

For the compound `Cc1ccc2c(c1)C(=O)N(CCCCCN1CC=C(c3c[nH]c4ccccc34)CC1)C2=O`, the Ki was found to be 2 nM.

As for `O=C1c2ccccc2C(=O)N1CCCCN1CC=C(c2c[nH]c3ccc(F)cc23)CC1`, the affinity corresponds to a Ki of 0.6 nM.

In turn, `O=C1c2ccccc2C(=O)N1CCCCCN1CC=C(c2c[nH]c3ccc(F)cc23)CC1` showed a Ki of 2.5 nM. This Ki lies about 4.2-fold higher than the previous one.

Turning to `C1=C(c2c[nH]c3ccccc23)CCNC1`, affinity was put at a Ki of 6 nM.

With `O=C1c2ccccc2C(=O)N1CCCN1CC=C(c2c[nH]c3ccc(F)cc23)CC1`, the Ki worked out at 25 nM.

Consider `Cc1cccc2c1C(=O)N(CCCCCN1CC=C(c3c[nH]c4ccc(F)cc34)CC1)C2=O`, for which the affinity, expressed as Ki, was 1 nM.

Take `O=C1c2cccc(F)c2C(=O)N1CCCCCN1CC=C(c2c[nH]c3ccc(F)cc23)CC1`: the Ki came out at 0.4 nM. This Ki lies about 2.5-fold lower than the previous one.

Compound `O=C1c2ccc(F)cc2C(=O)N1CCCCCN1CC=C(c2c[nH]c3ccc(F)cc23)CC1` had a Ki of 1.3 nM. This Ki is about 3.2-fold higher than that of the compound before.

With `O=C1c2ccccc2C(=O)N1CCCCCCCN1CC=C(c2c[nH]c3ccc(F)cc23)CC1`, the Ki is 0.8 nM. This Ki is about 1.6-fold lower than that of the compound before.

Consider `O=C1c2cccc(F)c2C(=O)N1CCCCCN1CC=C(c2c[nH]c3ccccc23)CC1`, for which the Ki came to 0.8 nM.

Turning to `Cc1ccc2c(c1)C(=O)N(CCCCCN1CC=C(c3c[nH]c4ccc(F)cc34)CC1)C2=O`, the affinity, expressed as Ki, was 3 nM.

Compound `O=C1c2ccccc2C(=O)N1CCCCCN1CC=C(c2c[nH]c3ccccc23)CC1` returned a Ki of 2.5 nM.

`O=C1c2ccc(F)cc2C(=O)N1CCCCCN1CC=C(c2c[nH]c3ccccc23)CC1` came in with a Ki of 2 nM.

Consider `Cc1cccc2c(C3=CCN(CCCCCN4C(=O)c5ccccc5C4=O)CC3)c[nH]c12`, for which the inhibition constant Ki came out at 1.3 nM.

With `O=C(CCCN1CCC(CCc2c[nH]c3ccccc23)CC1)c1ccc(F)cc1`, the Ki was determined as 2 nM.

The subject of another experiment is Mus musculus. The experiment can be described thus: Serotonin reuptake activity was determined in vivo by potentiation of 5-hydroxytryptophan induced serotonin syndrome like behavior in mice by oral administration. The experiment is classed as functional.
Take `O=C1c2ccccc2C(=O)N1CCCCCN1CC=C(c2c[nH]c3ccc(F)cc23)CC1`: the ED50 was 5.9 mg/kg.

In the case of `O=C1c2cccc(F)c2C(=O)N1CCCCCN1CC=C(c2c[nH]c3ccc(F)cc23)CC1`, the ED50 was determined as 10 mg/kg.

As for `O=C1c2ccc(F)cc2C(=O)N1CCCCCN1CC=C(c2c[nH]c3ccc(F)cc23)CC1`, the ED50 turned out to be 10 mg/kg.

As for `O=C1c2cccc(F)c2C(=O)N1CCCCCN1CC=C(c2c[nH]c3ccccc23)CC1`, the ED50 was below 50 mg/kg.

`O=C1c2ccccc2C(=O)N1CCCCCN1CC=C(c2c[nH]c3ccccc23)CC1`: the ED50 was 7.1 mg/kg.

Take `O=C(CCCN1CCC(CCc2c[nH]c3ccccc23)CC1)c1ccc(F)cc1`: the ED50 was above 30 mg/kg.
